Data as given in patent US11439657B2, “Cancer stem cell growth inhibitor using miRNA” (CancerStem Tech Inc., priority 2017, dated 2022).
“Also recorded” adds a separate entry of the source.

Key:
[1] = tested on: human large bowel cancer cells (DLD1 line); test: Antitumor effect on human large bowel cancer cells, cell count after transfection; assay type: cell-based; conditions: 10 pmol/well, FIG. 11
Procedure: (§1) A cell suspension prepared by suspending human pancreatic cancer cells (Bxpc3 line) in D-MEM medium (containing 10% by volume FBS) was seeded in each well of a 24-well plate at 3×10^3 cells/well, followed by culture at 37° C. overnight. Thereafter, according to the lipofectamin 2000 protocol, each miRNA was transfected at 10 pmol/well, and 48 hours later, the cells were counted. In addition, tests were also conducted under the same condition on a case where the miRNA was not introduced (untreated group), a case where hsa-miR-34a (SEQ ID NO: 8) was used (positive control) in place of the miRNA, and a case where a control miRNA (SEQ ID NO: 9) was used (control miRNA, negative control) in place of the selected miRNA.
(§2) As to hsa-miR-136-5p, hsa-miR-3065-3p, hsa-miR-4727-5p, hsa-miR-378g, hsa-miR-181a-5p, hsa-miR-362-5p and hsa-miR-608, evaluation was performed of the antitumor effect on human large bowel cancer cells. The specific test method is the same as that for Test Example 4 except that human large bowel cancer cells (DLD1 line) were used as cancer cells, and that the cells were counted 72 hours after transfection.

[2] = tested on: human pancreatic cancer cells (PSN-1 line); test: Antitumor effect on human pancreatic cancer cells (2), cell count after transfection; assay type: cell-based; conditions: 10 pmol/well, 48 hours, FIG. 9
Procedure: as §1
As to hsa-miR-136-5p, hsa-miR-3065-3p and hsa-miR-181a-5p, evaluation was performed of the antitumor effect on human pancreatic cancer cells. The specific test method is the same as that for Test Example 4 except that a PSN-1 line was used as human pancreatic cancer cells.

[3] = tested on: human gastric cancer cells (AGS line); test: Antitumor effect on human gastric cancer cells, cell count after transfection; assay type: cell-based; conditions: 10 pmol/well, 48 hours, FIG. 10
Procedure: as §1
As to hsa-miR-136-5p, hsa-miR-3065-3p and hsa-miR-181a-5p, evaluation was performed of the antitumor effect on human gastric cancer cells. The specific test method is the same as that for Test Example 4 except that human gastric cancer cells (AGS line) were used as cancer cells.

[4] = tested on: solid tumor from the cancer stem cell population (ZsGreen+); test: Mouse subcutaneous solid tumor model test; assay type: in vivo, BALB/cA nude mice; conditions: carbonate apatite nanoparticles containing the miRNA, 40 μg/dose, tail vein i.v., days 0-19; tumor excised on the 24th day
Procedure: In 100 ml of distilled water, 0.37 g of NaHCO3, 90 μl of NaH2PO4.2H2O (1M) and 180 μl of CaCl2 (1 M) were added in this order and dissolved, and the pH was adjusted to 7.5 with 1N HCl. This was filtered through 0.2 μm diameter filter. Per 1 ml of the resultant buffer, 2 μg of miRNA and 4 μl of CaCl2 (1 M) were mixed and incubated in a water bath at 37° C. for 30 minutes. Then, spin down was performed at 15000 rpm×5 minutes. The resultant pellet was dispersed in physiological saline (containing 0.5 wt % albumin). Accordingly, a dispersion of composite particles containing the miRNA in carbonate apatite particles was obtained. The resultant dispersion was subjected to ultrasonic vibration treatment for 10 minutes just prior to testing. Note that the ultrasonic vibration treatment was performed for 10 minutes using a water bath with an ultrasonic vibration function, in which the dispersion contained in a plastic container was floated on water set to 20° C., under conditions of high frequency output of 55 W and oscillation frequency of 38 kHz. The preparation obtained in this way was immediately used for the tests described below.
Note that it is confirmed in the measurement using a scanning probe microscope that the dispersion of ultrasonic vibration treatment includes composite particles composed of carbonate apatite nanoparticles containing the miRNA having an average particle diameter of 50 nm or less. It is also confirmed that the resultant composite particles contain about 20 μg of the miRNA per 1 mg of carbonate apatite.
The cancer stem cell population (ZsGreen+) obtained in Test Example 1 was subcutaneously injected at 5×10^5 cells to the left and right backs of 6 to 8 weeks age BALB/cA nude mice (manufactured by CLEA Japan, Inc.) to produce solid tumor model mice. When the tumor reached about 20 mm^3 in size, the mice were randomly divided into an hsa-miR-136-5p administration group (hsa-miR-136-5p), an untreated group, and a negative control group (control miRNA). In the hsa-miR-136-5p administration group, the day at which the tumor reached about 20 mm^3 in size was 0th day. On the 0th, 3rd, 5th, 7th, 10th, 12th, 14th, 17th and 19th days, carbonate apatite nanoparticles containing the hsa-miR-136-5p were intravenously injected into the tail vein at 40 μg/dose in terms of the amount of hsa-miR-136-5p. In the negative control group, carbonate apatite nanoparticles containing a control miRNA (SEQ ID NO: 9) were intravenously injected into the tail vein at the same schedule and dose as those for the miRNA136-5p administration group. In the untreated group, no drug was administered. During the test period, the tumor volume on the back of the mouse (longer diameter×shorter diameter×shorter diameter×1/2) was measured over time, and on the 24th day, the tumor was excised from the mice and observed for size, and its weight was measured.
A mouse subcutaneous solid tumor model test was conducted in the same manner as in Test Example 2 except that hsa-miR-3065-3p was used in place of hsa-miR-136-5p.
A mouse subcutaneous solid tumor model test was conducted in the same manner as in Test Example 2 except that hsa-miR-181-5p was used in place of hsa-miR-136-5p.

[5] = tested on: human pancreatic cancer cells (Bxpc3 line); test: Antitumor effect on human pancreatic cancer cells (1), cell count after transfection; assay type: cell-based; conditions: 10 pmol/well, FIG. 8
Procedure: as §1

[6] = tested on: cancer stem cell population (ZsGreen+) established from pancreatic cancer cell line Panc-1; test: Screening of miRNAs: cell count (cell viability) of the cancer stem cell population after transfection; assay type: cell-based, human; conditions: miRNA 10 pmol/well, lipofectamin 2000, cells counted 48 and 72 hours later, FIG. 4
Text: A cancer stem cell line was established by transducing a pancreatic cancer cell line (Panc-1) with an ODC (Ornithine Decarboxylase)-Degron system capable of visualizing low metabolism that is a property of cancer stem cells using a retrovirus vector (FIG. 1a). The base sequence coding the used ODC-Degron is as set forth in SEQ ID NO: 10. Usually, cancer stem cells are so 26s proteasome hypometabolic that they cannot degrade the introduced fluorescently labeled Ornithine Decarboxylase Degron, and thus the fluorescent protein sufficiently accumulates to provide visualization.
However, even when the ODC-degron system was introduced into the pancreatic cancer cell line Panc-1, only about 0.06% cells emitting fluorescence (green) were obtained in total. With such a small number of cancer stem cells, a series of experiments including drug screening cannot be performed. Accordingly, further enrichment of cancer stem cells provided a cancer stem cell population in which cells having observed fluorescent coloring (i.e., cancer stem cells) accounted for about 81.18% in total (FIG. 1b). The obtained cancer stem cell population was designated as ZsGreen+.
A cell suspension prepared by suspending the cancer stem cell population (ZsGreen+) in a medium (DMEM medium containing 10% by volume FBS) was seeded in each well of a 24-well plate at a density of 5000 to 10000 cells/well, followed by culture at 37° C. overnight. Thereafter, according to the lipofectamin 2000 protocol, each miRNA was transfected at 10 pmol/well, and 48 hours and 72 hours later, the cells were counted. In addition, tests were also conducted under the same condition on a case where the miRNA was not introduced (untreated group, control), a case where has-miR-34a (SEQ ID NO: 8) was used (positive control) in place of the selected miRNA, and a case where a control miRNA (SEQ ID NO: 9) was used (NC1, negative control) in place of the selected miRNA. In addition, for comparison, the non-cancer stem cell population (ZsGreen−) was used in place of the cancer stem cell population (ZsGreen+) to conduct tests under the same condition.
The ratio of the number of cells under each condition to the number of control cells into which the miRNA was not introduced (cell viability, %) was determined.

[7] = tested on: human esophageal cancer cells (TE11 line); test: Antitumor effect on human esophageal cancer cells, cell count after transfection; assay type: cell-based; conditions: 10 pmol/well, FIG. 12
Procedure: as §1
as §2, with “hsa-miR-378g and” for “hsa-miR-378g,”, “hsa-miR-181a-5p,” for “hsa-miR-181a-5p, hsa-miR-362-5p and hsa-miR-608,”, “esophageal” for “large bowel”, “(TE11” for “(DLD1”

[8] = 72 hours, positive control hsa-miR-34a
[9] = cells counted 72 hours after transfection

With “hsa-miR-181a-5p: human-derived miR-181a-5p; base sequence set forth in SEQ ID NO: 5 as mature miRNA (AACAUUCAACGCUGUCGGUGAGU; listed as RNA, chemistry not given here; listed as Homo sapiens)” the antitumor effect [1, 8] was “much better antitumor effect than that of hsa-miR-34a; also recorded: particularly remarkable antitumor effect”, the “proliferation inhibitory effect on large bowel cancer cells” value [1, 9] was “strong proliferation inhibitory effect” and the “proliferation inhibitory effect on pancreatic cancer cells” value [2] was “strong proliferation inhibitory effect”. For the same substance, the “proliferation inhibitory effect on gastric cancer cells” value [3] was “strong proliferation inhibitory effect”, the antitumor effect ([3]; positive control hsa-miR-34a) was “much better antitumor effect than that of hsa-miR-34a; also recorded: particularly remarkable antitumor effect” and the “antitumor effect as compared to the untreated group and the negative control group (control miRNA)” value [4] was “remarkably higher antitumor effect”. For the same substance, the antitumor effect ([5]; 48 hours, positive control hsa-miR-34a) was “much better antitumor effect than that of hsa-miR-34a”, the “proliferation inhibitory effect on pancreatic cancer cells” value ([5]; cells counted 48 hours later) was “strong proliferation inhibitory effect” and the “proliferation inhibitory effect on cancer stem cells (cell viability)” value [6] was “effectively suppress proliferation of cancer stem cells; also recorded: prominent proliferation inhibitory effect”. For the same substance, the antitumor effect [7, 8] was “much better antitumor effect than that of hsa-miR-34a; also recorded: particularly remarkable antitumor effect” and the “proliferation inhibitory effect on esophageal cancer cells” value [7, 9] was “strong proliferation inhibitory effect”.
